Test results taken from patent US11839210B1, “Plant growth promoter with strigolactones regulation activities” (King Abdullah University of Science and Technology, priority 2017, dated 2023).

Experiments:
[1] = test system: D10; assay: qRT-PCR of D10 gene expression in rice roots after zaxinone treatment; assay type: in vivo, rice (Oryza sativa Nipponbare); details: −Pi, 6 h
Experimental: For the analysis of SL transcript levels in the zas mutant, one week-old seedlings were grown hydroponically in half-strength modified Hoagland nutrient solution with K2HPO4·2H2O (+Pi) and without K2HPO4·2H2O (−Pi) for 7 days. Seedlings were further treated with zaxinone for 6 h and tissues were collected.
Total RNA was extracted from the roots and shoots using a Qiagen Plant RNeasy Kit according to the manufacturer's instruction. cDNA was synthesized from 1 μg of total RNA using iScript cDNA Synthesis Kit (BIO-RAD Laboratories, Inc, 2000 Alfred Nobel Drive, Hercules, CA, Cat. No #170-8890) according to instructions in the user manual. For mycorrhizal samples, single-strand cDNA was synthesized from 1 μg of total RNA using Super-Script II (Invitrogen) according to instructions in the user manual. Primers used for real-time quantitative RT-PCR (qRT-PCR) analysis are listed below in Table 3. qRT-PCR was performed using SYBR Green Master Mix (Applied Biosystems; www.lifetechnologies.com) in a StepOnePlus (Life Technologies, Carlsbad, CA, USA). For mycorrhizal samples, qRT-PCR was performed using a Rotor-Gene Q 5plex HRM Platform (Qiagen). The 2-ΔCt method was used to calculate the relative gene expression levels and rice Ubiquitin (OsUBQ or OsRubQ1) gene was used as the internal control to normalize target gene expression.
14-day-old rice seedlings were transferred to new hydroponic pots containing fresh media with or without chemicals for 6 hours. SL biosynthetic (D27, D10, D17 and MAX1-Os900) gene expression were determined under −Pi conditions (phosphate deficient) with zaxinone (2.5 and 5 μM) treatment of both Nipponbare wild-type (WT) rice roots and zas mutant rice roots. The expression levels (1301) were detected by quantitative RT-PCR. Ubiquitin was used as a reference gene. Mock treatment (control) treatment consisted of 0.1% acetone. Bars (1302) show comparisons between the treatments and represent mean±SD (n=3). Decrease in SLs levels in the plants treated with zaxinone ranged from approximately 40% to 70%.

[2] = test system: Striga hermonthica; assay: Striga hermonthica infection in rice (pots with Striga infested soil); assay type: in vivo, Striga hermonthica on rice cv. IAC-165; details: 10 μM zaxinone
Experimental: About 10 mg (4000) of Striga seeds were thoroughly mixed in 2 L soil and sand mixture (1:1), and added to a 3 L plastic pot. The pots with Striga seeds were kept under moist conditions at 35° C. for 10 days. Five days-old three rice seedlings (Oryza sativa L. cv. IAC-165) were then planted in the middle of each pot. A stock of 10 mM of zaxinone was prepared by mixing with an emulsifier (cyclohexanone+Atlas G1086). Three days after rice planting, zaxinone was applied at 10 μM through 20 ml water in each pot. Zaxinone was applied twice a week for up-to five weeks. Striga emergences were recorded six weeks after rice planting.

[3] = test system: Striga hermonthica seeds; assay: Striga hermonthica seed germination bioassay with rice root exudates; assay type: in vivo
Experimental: For the analysis of SLs, one week-old seedlings were further transferred into 50 ml falcon tube (three seedlings per tube) containing Hoagland nutrient solution with K2HPO4·2H2O (+Pi) and grown in the growth cabinet for one week. The rice seedlings were then subjected to phosphate deficiency for another one week period. On the day of root exudates collection, rice seedlings were first treated with 5 μM zaxinone for 6 h and then root exudates and root tissues were collected from each tube for LC-MS/MS analysis and Striga bioassays.
The Striga seed germination bioassay was carried out in the following manner After 10 days of pre-conditioning (30° C. under moisture for 10 days), Striga seeds were supplied with 50 μl of SL collected from root exudates of zaxinone treated and non-treated wild-types and zas mutants. After SLs application, Striga seeds were incubated at 30° C. in the dark for two days. Germinated (seeds with radicle) and non-germinated seeds were counted under a binocular to calculate germination rates (%).

CC(=O)/C=C/C=C(C)/C=C/C1=C(C)C[C@@H](O)CC1(C)C [zaxinone, 3-OH-β-apo-13-carotenone]
decrease of D10 relative expression vs mock ([1]; WT rice roots, 2.5 μM zaxinone): approximately 75% | D10 relative expression ([1]; WT rice roots, 2.5 μM zaxinone, WT mock approx. 1.0): approximately 0.25 | decrease of D10 relative expression vs mock ([1]; WT rice roots, 5.0 μM zaxinone): ~70% | D10 relative expression ([1]; WT rice roots, 5.0 μM zaxinone, WT mock approx. 1.0): approximately 0.3 | decrease of D10 relative expression vs mock ([1]; zas mutant rice roots, 2.5 μM zaxinone): approximately 60% | D10 relative expression ([1]; zas mutant rice roots, 2.5 μM zaxinone, zas mock approx. 2.5): approximately 1.0 | decrease of D10 relative expression vs mock ([1]; zas mutant rice roots, 5.0 μM zaxinone): ~68% | D10 relative expression ([1]; zas mutant rice roots, 5.0 μM zaxinone, zas mock approx. 2.5): approximately 0.8 | reduction of number of emerging Striga plants vs untreated control ([2]; rice cv. IAC-165 in pots with Striga infested soil): around 80% | number of emerging Striga plants ([2]; six-week old rice cv. IAC-165 in soil, mock around 15-25): less than 10 | decrease in germination rate of S. hermonthica seeds vs mock-treated culture medium ([3]; culture medium from zaxinone treated WT rice): approximately 50% | decreases in germination rates of S. hermonthica seeds vs mock ([3]; culture medium from zaxinone treated WT rice and zas mutant rice (both together)): 40-50% | decrease in germination rate of S. hermonthica seeds vs mock-treated culture medium ([3]; culture medium from zaxinone treated zas mutant rice): approximately 40% | germination of Striga seeds exposed to root exudates ([3]; exudates from zaxinone treated zas mutant (zas/Zax), phosphate-starved, 5 μM): decreased to levels near the germination rates for the wild-type control | germinating activity of root exudates on Striga hermonthica seeds ([3]; zas exudates, normal phosphorus (+Pi), 5 μM zaxinone, exudates diluted 9 times): decreased germinating activity of zas exudates (zas/Zax) to a level below that of the wild-type sample | lowering of Striga seed germinating activity of root exudates ([3]; zas mutant exudates, phosphate-starved, 5 μM zaxinone, 6 h): 40%
